System: Hs578T complex spheroid growth, percent test/control
Assay: Anticancer human tumor Hs578T cell line growth inhibition [AhR];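 note: luminescent viability signal as a proxy for spheroid growth; spheroids exposed to agents for one week after three days of growth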
Settings: for IC50: curve of first compound; for viability, T/C: stronger effect = lower value
Procedure, shortened: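 Spheroids combined tumor cells with HUVEC endothelial cells and human MSCs as stroma. AhR antagonists were paired with standard or investigational drugs, each dosed in half-log steps down from near clinical Cmax, or from 10 microM where Cmax was unknown.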

[1] = second compound 0.1 µM, first compound 0.000949 µM
[2] = second compound 0.1 µM, first compound 0.003 µM
[3] = second compound 0.1 µM, first compound 0.00949 µM
[4] = second compound 0.1 µM, first compound 0.03 µM
[5] = second compound 0.1 µM, first compound 0.0949 µM
[6] = second compound 0.1 µM, first compound 0.3 µM
[7] = second compound 0.316 µM, first compound 0.000949 µM
[8] = second compound 0.316 µM, first compound 0.003 µM
[9] = second compound 0.316 µM, first compound 0.00949 µM
[10] = second compound 0.316 µM, first compound 0.03 µM
[11] = second compound 0.316 µM, first compound 0.0949 µM
[12] = second compound 0.316 µM, first compound 0.3 µM
[13] = second compound 1 µM, first compound 0.000949 µM
[14] = second compound 1 µM, first compound 0.003 µM
[15] = second compound 1 µM, first compound 0.00949 µM
[16] = second compound 1 µM, first compound 0.03 µM
[17] = second compound 1 µM, first compound 0.0949 µM
[18] = second compound 1 µM, first compound 0.3 µM
[19] = second compound 3.16 µM, first compound 0.000949 µM
[20] = second compound 3.16 µM, first compound 0.003 µM
[21] = second compound 3.16 µM, first compound 0.00949 µM
[22] = second compound 3.16 µM, first compound 0.03 µM
[23] = second compound 3.16 µM, first compound 0.0949 µM
[24] = second compound 3.16 µM, first compound 0.3 µM
[25] = second compound 10 µM, first compound 0.000949 µM
[26] = second compound 10 µM, first compound 0.003 µM
[27] = second compound 10 µM, first compound 0.00949 µM
[28] = second compound 10 µM, first compound 0.03 µM
[29] = second compound 10 µM, first compound 0.0949 µM
[30] = second compound 10 µM, first compound 0.3 µM

With CC(C)CC(NC(=O)C(Cc1ccccc1)NC(=O)c1cnccn1)B(O)O (stereo not given) + Cc1cncc(-c2nc(NCCc3c[nH]c4ccccc34)c3ncn(C(C)C)c3n2)c1 the IC50 (second compound 0.1 µM) was 7 nM, the IC50 (second compound 0.316 µM) was 6.66 nM and the IC50 (second compound 1 µM) was 5.92 nM. The IC50 (second compound 3.16 µM) was 3.77 nM, the IC50 (second compound 10 µM) was under 0.949 nM and the viability, T/C [1] was 101%. The viability, T/C [2] was 101%, the viability, T/C [3] was 31.8% and the viability, T/C [4] was 0.32%. For the same compound, the viability, T/C [5] was 0.25%, the viability, T/C [6] was 0.36% and the viability, T/C [7] was 112%. For the same compound, the viability, T/C [8] was 101%, the viability, T/C [9] was 27.3% and the viability, T/C [10] was 0.39%. It also gave a viability, T/C [11] of 0.31%, a viability, T/C [12] of 0.31% and a viability, T/C [13] of 97.8%. For the same compound, the viability, T/C [14] was 86.5%, the viability, T/C [15] was 24.8% and the viability, T/C [16] was 0.28%. The viability, T/C [17] was 0.19%, the viability, T/C [18] was 0.29% and the viability, T/C [19] was 69.4%. The viability, T/C [20] was 58%, the viability, T/C [21] was 17.3% and the viability, T/C [22] was 0.24%. It also gave a viability, T/C [23] of 0.24%, a viability, T/C [24] of 0.28% and a viability, T/C [25] of 5.56%. The viability, T/C [26] was 6.44%, the viability, T/C [27] was 1.16% and the viability, T/C [28] was 0.57%. For the same compound, the viability, T/C [29] was 0.26% and the viability, T/C [30] was 0.36%.
CCc1c2c(nc3ccc(O)cc13)-c1cc3c(c(=O)n1C2)COC(=O)[C@]3(O)CC + Cc1cncc(-c2nc(NCCc3c[nH]c4ccccc34)c3ncn(C(C)C)c3n2)c1 was tested, and the IC50 (second compound 0.1 µM) was 136 nM, the IC50 (second compound 0.316 µM) was 197 nM and the IC50 (second compound 1 µM) was 115 nM. The IC50 (second compound 3.16 µM) was under 0.949 nM, the IC50 (second compound 10 µM) was under 0.949 nM and the viability, T/C [1] was 74.8%. The viability, T/C [2] was 78.7%, the viability, T/C [3] was 74.4% and the viability, T/C [4] was 64.6%. The viability, T/C [5] was 53.9%, the viability, T/C [6] was 43.1% and the viability, T/C [7] was 83.5%. For the same compound, the viability, T/C [8] was 78.6%, the viability, T/C [9] was 80.2% and the viability, T/C [10] was 70.4%. It also gave a viability, T/C [11] of 61.2%, a viability, T/C [12] of 43.7% and a viability, T/C [13] of 77.7%. The viability, T/C [14] was 67.1%, the viability, T/C [15] was 68.2% and the viability, T/C [16] was 59.7%. It also gave a viability, T/C [17] of 52.1%, a viability, T/C [18] of 41.8% and a viability, T/C [19] of 38.9%. For the same compound, the viability, T/C [20] was 42.9%, the viability, T/C [21] was 38.7% and the viability, T/C [22] was 29%. It also gave a viability, T/C [23] of 18.2%, a viability, T/C [24] of 13.8% and a viability, T/C [25] of 4.74%. For the same compound, the viability, T/C [26] was 3.51%, the viability, T/C [27] was 4.95% and the viability, T/C [28] was 2.72%. It also gave a viability, T/C [29] of 1.85% and a viability, T/C [30] of 1%.
For Nc1ccccc1NC(=O)c1ccc(CNC(=O)OCc2cccnc2)cc1 + Cc1cncc(-c2nc(NCCc3c[nH]c4ccccc34)c3ncn(C(C)C)c3n2)c1, the IC50 (second compound 0.1 µM) was 1980 nM, the IC50 (second compound 0.316 µM) was 2150 nM and the IC50 (second compound 1 µM) was 1820 nM. The IC50 (second compound 3.16 µM) was 460 nM, the IC50 (second compound 10 µM) was under 31.6 nM and the viability, T/C (second compound 0.1 µM, first compound 0.0316 µM) was 118%. It also gave a viability, T/C (second compound 0.1 µM, first compound 0.1 µM) of 115%, a viability, T/C (second compound 0.1 µM, first compound 0.316 µM) of 115% and a viability, T/C (second compound 0.1 µM, first compound 1 µM) of 80.9%. The viability, T/C (second compound 0.1 µM, first compound 3.16 µM) was 28.6%, the viability, T/C (second compound 0.1 µM, first compound 10 µM) was 2.58% and the viability, T/C (second compound 0.316 µM, first compound 0.0316 µM) was 126%. For the same compound, the viability, T/C (second compound 0.316 µM, first compound 0.1 µM) was 116%, the viability, T/C (second compound 0.316 µM, first compound 0.316 µM) was 116% and the viability, T/C (second compound 0.316 µM, first compound 1 µM) was 87.5%. For the same compound, the viability, T/C (second compound 0.316 µM, first compound 3.16 µM) was 30.9%, the viability, T/C (second compound 0.316 µM, first compound 10 µM) was 2.84% and the viability, T/C (second compound 1 µM, first compound 0.0316 µM) was 109%. For the same compound, the viability, T/C (second compound 1 µM, first compound 0.1 µM) was 106%, the viability, T/C (second compound 1 µM, first compound 0.316 µM) was 107% and the viability, T/C (second compound 1 µM, first compound 1 µM) was 76.5%. It also gave a viability, T/C (second compound 1 µM, first compound 3.16 µM) of 25.1%, a viability, T/C (second compound 1 µM, first compound 10 µM) of 2.17% and a viability, T/C (second compound 3.16 µM, first compound 0.0316 µM) of 72%. For the same compound, the viability, T/C (second compound 3.16 µM, first compound 0.1 µM) was 69.9%, the viability, T/C (second compound 3.16 µM, first compound 0.316 µM) was 55.5% and the viability, T/C (second compound 3.16 µM, first compound 1 µM) was 36.5%. It also gave a viability, T/C (second compound 3.16 µM, first compound 3.16 µM) of 10.7%, a viability, T/C (second compound 3.16 µM, first compound 10 µM) of 0.49% and a viability, T/C (second compound 10 µM, first compound 0.0316 µM) of 4.97%. The viability, T/C (second compound 10 µM, first compound 0.1 µM) was 4.48%, the viability, T/C (second compound 10 µM, first compound 0.316 µM) was 2.94% and the viability, T/C (second compound 10 µM, first compound 1 µM) was 3.5%. For the same compound, the viability, T/C (second compound 10 µM, first compound 3.16 µM) was 0.48% and the viability, T/C (second compound 10 µM, first compound 10 µM) was 0.4%.

From PubChem BioAssay AID1919010 (Molecular Pharmacology Branch, DTP, NCI, 2023)
